From ChEMBL document CHEMBL2040789, “Optimization of the Central Core of Indolinone-Acetic Acid-Based CRTH2 (DP2) Receptor Antagonists” (ACS Med Chem Lett, 2011)
In brackets after ≈: the same amount, converted by molar mass. Each block holds one compound with its values, some of them ahead of it.

Key:
[1] = target: T1, Prostaglandin D2 receptor 2 (Homo sapiens, UniProt Q9Y5Y4); assay: Displacement of [3H]PGD2 from human CRTH2 receptor expressed in CHO cells after 90 mins by scintillation proximity assay; format: cell-based
T1 sequence (Q9Y5Y4 whole entry): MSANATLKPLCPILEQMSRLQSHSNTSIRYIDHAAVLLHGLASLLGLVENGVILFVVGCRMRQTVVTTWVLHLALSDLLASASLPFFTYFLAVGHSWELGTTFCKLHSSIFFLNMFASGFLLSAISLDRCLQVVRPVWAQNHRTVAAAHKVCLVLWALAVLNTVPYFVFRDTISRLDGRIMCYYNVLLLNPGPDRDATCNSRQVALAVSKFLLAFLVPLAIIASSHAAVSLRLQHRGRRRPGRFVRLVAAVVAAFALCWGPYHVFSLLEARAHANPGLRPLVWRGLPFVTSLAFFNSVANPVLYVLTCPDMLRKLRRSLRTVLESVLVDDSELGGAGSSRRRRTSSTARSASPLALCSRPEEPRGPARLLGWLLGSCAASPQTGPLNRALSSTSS

[2] = Fraction unbound in human plasma; format: ADME, cell-free
[3] = Fraction unbound in rat plasma; format: ADME, cell-free
[4] = Fraction unbound in mouse plasma; format: ADME, cell-free
[5] = Apparent permeability of the compound in human Caco2 cells; format: ADME, cell-based; details: Caco-2
[6] = Oral bioavailability in Sprague-Dawley rat at 5 mg/kg; format: ADME, organism-based; details: in vivo
[7] = Oral bioavailability in C57BL/6 mouse at 5 mg/kg; format: ADME, organism-based; details: in vivo
[8] = Intrinsic clearance in rat liver microsomes; format: ADME, Microsome; details: read-out: CLH
[9] = test system: Mus musculus; assay: Antiinflammatory activity in ovalbumin-sensitised Balb/c mouse assessed as reduction in ovalbumin-induced eosinophil count in bronchoalveolar lavage fluid at 30 mg/kg, po administered 1 hr before and 7 hrs after ovalbumin challenge measured after 8 hrs by haemocytometeric analysis; format: functional; details: Lung
[10] = target: T2, Prostaglandin E2 receptor EP1 subtype (Homo sapiens) (UniProt P34995); assay: Inhibition of EP1 at 10 uM
T2 sequence (whole entry): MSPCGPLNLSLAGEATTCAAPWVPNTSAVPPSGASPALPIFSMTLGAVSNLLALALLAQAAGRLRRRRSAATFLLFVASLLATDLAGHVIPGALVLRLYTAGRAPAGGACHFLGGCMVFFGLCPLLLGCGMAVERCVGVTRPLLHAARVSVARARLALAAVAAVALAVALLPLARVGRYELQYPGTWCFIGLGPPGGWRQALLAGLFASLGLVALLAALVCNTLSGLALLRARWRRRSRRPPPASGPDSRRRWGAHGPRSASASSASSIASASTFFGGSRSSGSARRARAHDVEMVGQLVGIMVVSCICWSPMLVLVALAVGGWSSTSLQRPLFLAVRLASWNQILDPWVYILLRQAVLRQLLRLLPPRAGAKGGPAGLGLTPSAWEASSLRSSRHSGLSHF

[11] = target: Prostaglandin E2 receptor EP2 subtype (Homo sapiens) (UniProt P43116); assay: Inhibition of EP2 at 10 uM
[12] = target: T3, Prostaglandin D2 receptor (Homo sapiens) (UniProt Q13258); assay: Inhibition of DP1 expressed in human HEK cells at 20 uM; format: cell-based; details: HEK293
T3 sequence (whole entry): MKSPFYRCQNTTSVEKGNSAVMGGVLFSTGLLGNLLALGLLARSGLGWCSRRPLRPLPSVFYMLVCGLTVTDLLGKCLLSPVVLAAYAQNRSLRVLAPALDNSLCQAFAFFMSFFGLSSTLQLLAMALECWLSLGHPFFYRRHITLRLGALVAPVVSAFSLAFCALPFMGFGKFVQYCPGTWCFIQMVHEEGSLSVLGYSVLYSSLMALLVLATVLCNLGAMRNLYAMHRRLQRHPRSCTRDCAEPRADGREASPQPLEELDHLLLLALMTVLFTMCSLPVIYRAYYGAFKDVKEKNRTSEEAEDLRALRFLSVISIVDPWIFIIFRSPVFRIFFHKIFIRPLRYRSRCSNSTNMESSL

[13] = target: T3, Prostaglandin D2 receptor (Homo sapiens); assay: Antagonist activity at DP1 receptor expressed in HEK cells assessed as inhibition of PGD2-induced cAMP production at 20 uM; format: functional, cell-based; details: HEK293
[14] = target: Voltage-gated inwardly rectifying potassium channel KCNH2 (Homo sapiens, UniProt Q12809); assay: Inhibition of human Erg
[15] = test system: Hepatocyte; assay: Cytotoxicity against primary rat hepatocytes up to 750 uM; format: cell-based
[16] = test system: HepG2; assay: Cytotoxicity against human HepG2 cells up to 750 uM; format: cell-based
[17] = target: T4, Cytochrome P450 1A2 (Homo sapiens, UniProt P05177); assay: Inhibition of CYP1A2; format: ADME
T4 sequence (P05177 whole entry): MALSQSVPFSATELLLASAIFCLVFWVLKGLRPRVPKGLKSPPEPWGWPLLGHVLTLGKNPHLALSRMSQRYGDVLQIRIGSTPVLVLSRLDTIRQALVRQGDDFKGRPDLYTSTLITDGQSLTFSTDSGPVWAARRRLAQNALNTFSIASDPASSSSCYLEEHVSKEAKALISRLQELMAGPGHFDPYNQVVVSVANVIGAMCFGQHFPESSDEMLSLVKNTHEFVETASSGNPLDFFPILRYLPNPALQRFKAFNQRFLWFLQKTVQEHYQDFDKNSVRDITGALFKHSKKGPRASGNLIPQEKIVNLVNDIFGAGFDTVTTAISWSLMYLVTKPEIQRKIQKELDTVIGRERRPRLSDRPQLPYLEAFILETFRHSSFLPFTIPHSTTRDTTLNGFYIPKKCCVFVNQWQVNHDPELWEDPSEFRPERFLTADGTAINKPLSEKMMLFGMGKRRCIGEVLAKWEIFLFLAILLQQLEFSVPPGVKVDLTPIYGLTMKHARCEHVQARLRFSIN

[18] = target: Cytochrome P450 2C19 (Homo sapiens, UniProt P33261); assay: Inhibition of CYP2C19; format: ADME
[19] = target: T5, Cytochrome P450 2C8 (Homo sapiens, UniProt P10632); assay: Inhibition of CYP2C8; format: ADME
T5 sequence (P10632 whole entry): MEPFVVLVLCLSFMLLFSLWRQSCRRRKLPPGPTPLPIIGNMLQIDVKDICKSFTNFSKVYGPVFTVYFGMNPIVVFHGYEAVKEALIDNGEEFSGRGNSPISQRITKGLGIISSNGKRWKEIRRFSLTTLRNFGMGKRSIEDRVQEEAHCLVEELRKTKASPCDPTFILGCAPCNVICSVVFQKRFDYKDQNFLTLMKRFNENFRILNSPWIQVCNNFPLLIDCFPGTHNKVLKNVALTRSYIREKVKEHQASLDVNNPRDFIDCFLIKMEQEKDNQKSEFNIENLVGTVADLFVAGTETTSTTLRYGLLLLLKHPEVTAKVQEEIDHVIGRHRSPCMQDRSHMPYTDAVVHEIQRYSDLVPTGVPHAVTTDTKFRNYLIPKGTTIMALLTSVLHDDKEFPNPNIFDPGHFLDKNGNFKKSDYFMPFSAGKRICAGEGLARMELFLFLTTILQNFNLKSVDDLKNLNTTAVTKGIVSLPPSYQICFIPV

[20] = target: Cytochrome P450 2C9 (Homo sapiens, UniProt P11712); assay: Inhibition of CYP2C9; format: ADME
[21] = target: Cytochrome P450 2D6 (Homo sapiens, UniProt P10635); assay: Inhibition of CYP2D6; format: ADME
[22] = target: Cytochrome P450 3A4 (Homo sapiens, UniProt P08684); assay: Inhibition of CYP3A4; format: ADME
[23] = Intrinsic clearance in human liver microsomes; format: ADME, Microsome; details: read-out: CLH
[24] = target: Aldo-keto reductase family 1 member B1 (Homo sapiens, UniProt P15121); assay: Inhibition of aldose reductase
[25] = Clearance in C57BL/6 mouse at 1 mg/kg, iv and 5 mg/kg, po; format: ADME, organism-based; details: in vivo
[26] = AUC in C57BL/6 mouse at 5 mg/kg, po; format: ADME, organism-based; parameters: dose 5 mg/kg, route oral; details: plasma
[27] = Clearance in Sprague-Dawley rat at 1 mg/kg, iv and 5 mg/kg, po; format: ADME, organism-based; details: in vivo
[28] = test system: Liver microsomes; assay: Clearance in human liver microsomes; format: ADME, Microsome
[29] = test system: Hepatocyte; assay: Clearance in human hepatocytes; format: ADME, cell-based
[30] = Oral bioavailability in guinea pig; format: ADME, organism-based, Cavia porcellus; details: in vivo
[31] = Oral bioavailability in monkey; format: ADME, organism-based, Macaca mulatta; details: rhesus monkey, in vivo
[32] = Oral bioavailability in dog; format: ADME, organism-based, Canis lupus familiaris; details: in vivo
[33] = Solubility of the compound in simulated gastric fluid; format: physicochemical
[34] = Bioavailability in Sprague-Dawley rat administered by portal vein; format: ADME, organism-based; details: in vivo
[35] = Drug degradation at pH 8 after 24 hrs; format: physicochemical; details: buffer, read-out: Drug degradation
[36] = Drug degradation at pH 9 after 24 hrs; format: physicochemical; details: buffer, read-out: Drug degradation
[37] = Drug degradation in human plasma after 24 hrs; format: ADME, cell-free; details: read-out: Drug degradation
[38] = Bioavailability in Sprague-Dawley rat after intraduodenal administration; format: ADME, organism-based; details: in vivo
[39] = Solubility of the compound in fasted state simulated intestinal fluid
[40] = test system: Mus musculus; assay: Antiinflammatory activity in ovalbumin-sensitised Balb/c mouse assessed as reduction in ovalbumin-induced eosinophil count in bronchoalveolar lavage fluid at 1 mg/kg, ip administered 1 hr before and 7 hrs after ovalbumin challenge measured after 8 hrs by haemocytometeric analysis; format: functional; details: Lung, route intraperitoneal

Cytochrome P450 2C19, sequence (P33261 whole entry): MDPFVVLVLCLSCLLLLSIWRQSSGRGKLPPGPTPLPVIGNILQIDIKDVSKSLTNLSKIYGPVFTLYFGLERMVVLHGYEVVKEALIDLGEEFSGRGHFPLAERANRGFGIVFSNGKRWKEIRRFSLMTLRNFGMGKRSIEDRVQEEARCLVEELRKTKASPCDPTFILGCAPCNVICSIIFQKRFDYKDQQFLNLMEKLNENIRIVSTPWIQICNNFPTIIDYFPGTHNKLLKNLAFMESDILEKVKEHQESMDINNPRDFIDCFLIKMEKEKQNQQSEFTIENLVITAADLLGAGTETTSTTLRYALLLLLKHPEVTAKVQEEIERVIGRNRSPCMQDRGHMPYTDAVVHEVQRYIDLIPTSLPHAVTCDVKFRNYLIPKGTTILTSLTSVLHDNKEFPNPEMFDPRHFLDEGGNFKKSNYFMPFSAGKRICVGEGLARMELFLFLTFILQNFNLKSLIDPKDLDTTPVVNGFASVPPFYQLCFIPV
Cytochrome P450 3A4, sequence (P08684 whole entry): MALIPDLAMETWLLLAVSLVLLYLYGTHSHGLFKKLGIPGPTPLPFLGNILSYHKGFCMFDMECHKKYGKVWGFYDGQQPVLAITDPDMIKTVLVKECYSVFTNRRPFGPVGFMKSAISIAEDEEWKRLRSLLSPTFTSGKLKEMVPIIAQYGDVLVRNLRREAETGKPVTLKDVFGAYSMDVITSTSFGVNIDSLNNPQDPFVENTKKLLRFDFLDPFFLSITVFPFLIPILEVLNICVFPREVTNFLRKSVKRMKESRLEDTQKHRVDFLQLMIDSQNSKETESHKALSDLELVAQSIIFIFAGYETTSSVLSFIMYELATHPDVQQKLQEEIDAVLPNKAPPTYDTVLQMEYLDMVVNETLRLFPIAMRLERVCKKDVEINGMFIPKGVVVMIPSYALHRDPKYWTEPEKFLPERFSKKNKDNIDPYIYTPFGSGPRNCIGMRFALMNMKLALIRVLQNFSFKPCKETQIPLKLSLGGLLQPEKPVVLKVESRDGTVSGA
Voltage-gated inwardly rectifying potassium channel KCNH2, sequence (Q12809 whole entry): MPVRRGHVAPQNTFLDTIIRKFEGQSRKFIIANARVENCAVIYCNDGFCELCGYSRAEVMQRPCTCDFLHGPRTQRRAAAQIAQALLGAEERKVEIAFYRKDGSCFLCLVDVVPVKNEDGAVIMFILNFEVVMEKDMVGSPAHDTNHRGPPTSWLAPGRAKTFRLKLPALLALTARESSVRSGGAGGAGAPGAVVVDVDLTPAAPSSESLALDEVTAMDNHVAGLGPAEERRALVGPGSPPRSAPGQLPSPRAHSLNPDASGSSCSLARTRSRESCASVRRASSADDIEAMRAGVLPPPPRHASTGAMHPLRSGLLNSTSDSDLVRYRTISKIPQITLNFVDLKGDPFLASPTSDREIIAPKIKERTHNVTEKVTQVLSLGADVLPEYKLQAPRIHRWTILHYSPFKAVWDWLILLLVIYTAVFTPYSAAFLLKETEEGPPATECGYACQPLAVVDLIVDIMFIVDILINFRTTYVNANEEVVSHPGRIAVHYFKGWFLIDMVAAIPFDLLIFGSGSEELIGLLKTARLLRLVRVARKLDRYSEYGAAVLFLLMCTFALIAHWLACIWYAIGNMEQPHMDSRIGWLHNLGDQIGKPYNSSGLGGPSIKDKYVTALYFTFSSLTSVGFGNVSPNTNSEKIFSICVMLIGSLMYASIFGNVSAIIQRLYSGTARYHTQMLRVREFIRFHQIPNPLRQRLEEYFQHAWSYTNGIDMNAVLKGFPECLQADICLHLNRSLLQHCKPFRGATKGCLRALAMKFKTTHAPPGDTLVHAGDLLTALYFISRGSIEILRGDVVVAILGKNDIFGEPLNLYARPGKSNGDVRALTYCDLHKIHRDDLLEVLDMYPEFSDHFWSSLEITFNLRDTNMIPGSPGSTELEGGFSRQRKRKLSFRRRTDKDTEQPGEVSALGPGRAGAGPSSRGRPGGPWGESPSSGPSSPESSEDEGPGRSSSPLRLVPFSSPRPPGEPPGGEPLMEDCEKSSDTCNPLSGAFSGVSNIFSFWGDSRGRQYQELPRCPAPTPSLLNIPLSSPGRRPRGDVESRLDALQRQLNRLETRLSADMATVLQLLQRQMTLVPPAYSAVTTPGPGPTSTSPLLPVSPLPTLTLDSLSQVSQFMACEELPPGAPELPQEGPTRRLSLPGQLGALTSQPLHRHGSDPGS
Prostaglandin E2 receptor EP2 subtype (Homo sapiens), sequence (P43116 whole entry): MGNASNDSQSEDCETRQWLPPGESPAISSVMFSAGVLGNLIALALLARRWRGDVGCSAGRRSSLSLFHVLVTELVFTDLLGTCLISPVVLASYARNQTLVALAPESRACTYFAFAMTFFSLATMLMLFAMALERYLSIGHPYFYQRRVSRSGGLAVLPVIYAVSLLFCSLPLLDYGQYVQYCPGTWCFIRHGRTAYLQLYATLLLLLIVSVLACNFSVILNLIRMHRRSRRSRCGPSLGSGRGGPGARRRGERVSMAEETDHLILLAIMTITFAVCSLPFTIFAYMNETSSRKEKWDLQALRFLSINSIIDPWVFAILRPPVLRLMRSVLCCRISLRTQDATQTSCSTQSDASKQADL
Cytochrome P450 2D6, sequence (P10635 whole entry): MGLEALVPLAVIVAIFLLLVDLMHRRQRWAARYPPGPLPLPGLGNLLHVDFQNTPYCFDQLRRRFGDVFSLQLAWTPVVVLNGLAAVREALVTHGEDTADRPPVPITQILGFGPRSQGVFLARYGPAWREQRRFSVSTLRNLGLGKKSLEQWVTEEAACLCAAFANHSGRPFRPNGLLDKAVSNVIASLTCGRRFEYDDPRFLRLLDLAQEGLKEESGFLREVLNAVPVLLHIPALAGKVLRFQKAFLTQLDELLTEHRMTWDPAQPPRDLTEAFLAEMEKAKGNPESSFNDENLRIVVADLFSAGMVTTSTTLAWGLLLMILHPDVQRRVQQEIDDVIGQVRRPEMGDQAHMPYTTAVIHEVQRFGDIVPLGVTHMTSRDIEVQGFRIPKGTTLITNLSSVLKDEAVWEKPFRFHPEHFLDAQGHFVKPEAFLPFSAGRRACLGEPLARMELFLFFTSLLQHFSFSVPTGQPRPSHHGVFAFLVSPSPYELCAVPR
Cytochrome P450 2C9, sequence (P11712 whole entry): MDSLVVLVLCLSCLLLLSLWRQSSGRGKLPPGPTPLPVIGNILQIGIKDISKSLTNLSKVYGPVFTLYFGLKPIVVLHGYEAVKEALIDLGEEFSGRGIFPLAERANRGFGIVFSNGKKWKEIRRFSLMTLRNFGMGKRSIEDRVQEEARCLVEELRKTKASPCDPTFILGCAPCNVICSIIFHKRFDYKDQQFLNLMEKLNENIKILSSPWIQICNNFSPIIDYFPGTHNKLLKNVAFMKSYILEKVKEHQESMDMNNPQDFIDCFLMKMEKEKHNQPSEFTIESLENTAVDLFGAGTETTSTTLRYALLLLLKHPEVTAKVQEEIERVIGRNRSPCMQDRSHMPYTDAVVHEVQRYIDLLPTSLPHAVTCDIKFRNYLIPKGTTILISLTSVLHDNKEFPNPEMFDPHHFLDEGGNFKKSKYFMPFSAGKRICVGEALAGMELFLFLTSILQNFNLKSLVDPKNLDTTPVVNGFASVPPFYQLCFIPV

- Ki [1]: 28 nM
SMILES: O=C(O)CN1C(=O)C2(NC(=O)N(Cc3cc(Cl)ccc3F)C2=O)c2cc(Cl)ccc21 (stereo not given)

- Ki [1]: 280 nM
SMILES: COc1c(C)cnc(CN2C(=O)N(C)C3(C2=O)C(=O)N(CC(=O)O)c2ccc(Cl)cc23)c1C (stereo not given)

- Ki [1]: 750 nM
SMILES: CN1C(=O)N(Cc2nc3ccccc3s2)C(=O)C12C(=O)N(CC(=O)O)c1ccc(Cl)cc12 (stereo not given)

- Ki [1]: 110 nM
SMILES: CCCN1C(=O)N(Cc2cc(Cl)ccc2F)C(=O)[C@]12C(=O)N(CC(=O)O)c1ccc(Cl)cc12

- Ki [1]: 35 nM
- fraction unbound [2]: 0.02
- fraction unbound [3]: 0.019
- fraction unbound [4]: 0.05
- Papp [5]: 0.6 ×10⁻⁶ cm/s
- bioavailability [6]: 37%
- bioavailability [7]: 39%
- microsomal CLint [8]: < 10 µL/min/mg
- inhibition [10]: 32%
- inhibition [11]: 34%
- inhibition [12]: < 30%
- inhibition [13]: < 30%
- IC50 [17]: > 10000 nM
- IC50 [18]: > 10000 nM
- IC50 [19]: > 10000 nM
- IC50 [20]: > 10000 nM
- IC50 [21]: > 10000 nM
- IC50 [22]: > 10000 nM
- microsomal CLint [23]: < 10 µL/min/mg
- IC50 [24]: 150 nM
- clearance [25]: 13.3 mL/min/kg
- AUC [26]: 2400 ng·h/mL
SMILES: CN1C(=O)N(Cc2cc(Cl)ccc2F)C(=O)[C@]12C(=O)N(CC(=O)O)c1ccc(Cl)cc12
- inhibition in vivo at 30 mg/kg [9]: 67%
- inhibition (INH) [14]: Not Active
- Activity [15]: Non-toxic
- Activity [16]: Non-toxic

- Ki [1]: 15 nM
- fraction unbound [2]: 0.023
- fraction unbound [3]: 0.03
- fraction unbound [4]: 0.063
- Papp [5]: 0.2 ×10⁻⁶ cm/s
- clearance [27]: 2.5 mL/min/kg
- CLH [28]: < 1 µg/mL/h
- CLH [29]: 2 µg/mL/h
- bioavailability [6]: 6%
- bioavailability [7]: 9%
- bioavailability [30]: 7%
- bioavailability [31]: 10%
- bioavailability [32]: 71%
- solubility [33]: 10 µg/mL (≈ 22.1 µM)
- bioavailability [34]: 90%
- degraded at 24 h [35]: < 5%
- degraded at 24 h [36]: 45%
- metabolised at 24 h [37]: < 15%
- bioavailability [38]: 11%
- clearance [25]: 13.3 mL/min/kg
- AUC [26]: 580 ng·h/mL
- solubility [39]: 1500 µg/mL (≈ 3320 µM)
SMILES: O=C(O)CN1C(=O)[C@@]2(NC(=O)N(Cc3cc(Cl)ccc3F)C2=O)c2cc(Cl)ccc21

- fraction unbound [2]: < 0.01
- Papp [5]: 1.8 ×10⁻⁶ cm/s
- clearance [27]: 12 mL/min/kg
- bioavailability [6]: 5%
- degraded at 24 h [36]: < 5%
- metabolised at 24 h [37]: < 15%
SMILES: O=C(O)CN1C(=O)[C@@]2(CC(=O)N(Cc3cc(Cl)ccc3F)C2)c2cc(Cl)ccc21

SMILES: C[C@@H]1C[C@H]2[C@@H]3CCC4=CC(=O)C=C[C@]4(C)[C@@]3(F)[C@@H](O)C[C@]2(C)[C@@]1(O)C(=O)CO [DEXAMETHASONE]
- inhibition in vivo at 1 mg/kg [40]: 83%

- Ki [1]: 260 nM
SMILES: CCN1C(=O)N(Cc2cc(Cl)ccc2F)C(=O)[C@]12C(=O)N(CC(=O)O)c1ccc(Cl)cc12
